Source: patent US10287252B2, “Inhibitors of tryptophan-2,3-dioxygenase or indoleamine-2,3-dioxygenase” (IOmet Pharma Ltd., priority 2014, dated 2019)

Key:
IDO = IDO (Homo sapiens, UniProt P14902); assay: SKOV3 Kynurenine cell based assay; parameters: IDO expression was induced in the SKOV3 cells by the addition of 500 ng/ml IFN-γ; endogenous in cells; host or cells: SKOV3 (human ovarian adenocarcinoma), induced with IFN-γ; conditions: SKOV3 (human ovarian adenocarcinoma) cells, IDO induced by 500 ng/ml IFN-γ, 500 μM L-tryptophan, 48 hours; for IC50: read-out: SKOV3 Kynurenine cell based assay pIC50 (converted)
Chain of IDO (P14902 whole entry): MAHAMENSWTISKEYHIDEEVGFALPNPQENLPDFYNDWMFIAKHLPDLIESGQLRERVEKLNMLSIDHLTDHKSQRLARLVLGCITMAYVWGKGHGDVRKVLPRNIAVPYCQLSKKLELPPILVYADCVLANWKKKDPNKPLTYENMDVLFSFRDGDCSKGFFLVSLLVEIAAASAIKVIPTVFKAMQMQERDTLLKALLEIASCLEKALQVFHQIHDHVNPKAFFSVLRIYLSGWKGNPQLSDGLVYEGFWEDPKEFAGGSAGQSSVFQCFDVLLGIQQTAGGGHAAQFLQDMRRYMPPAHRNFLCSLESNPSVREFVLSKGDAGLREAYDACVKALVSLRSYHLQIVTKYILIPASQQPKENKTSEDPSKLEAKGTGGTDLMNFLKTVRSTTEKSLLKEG
Protocol: (§1) Exemplary compounds of the invention were prepared, and tested to determine their effect as TDO and/or IDO inhibitors. Two different assays were employed: 1. a cell-based assay for detecting the effect of test compounds on kynurenine production in two different cancer cell types. This assay utilised cancer cells which expressed either TDO or IDO and as such was used as a means of testing compound activity at these two enzymes in a cell-based context. 2. a TDO and IDO biochemical coupled assay which utilised recombinantly produced and purified TDO and IDO enzymes in combination with the enzyme formamidase. This coupled enzyme system allowed conversion of N-formylkynurenine produced by TDO or IDO activity to kynurenine which was then quantified by fluorescence following addition of Erhlich's Reagent The protocols for these are set out below.
(§2) Cell Based Assay for Detection of Kynurenine Produced by TDO and/or IDO
(§3) A172 (human glioblastoma) and SKOV3 (human ovarian adenocarcinoma) cells were seeded in a 96 well plate at 30,000 or 40,000 cells per well respectively in phenol red-free RPMI supplemented with 10% FCS, 2 mM L-glutamine and 500 μM L-tryptophan. IDO expression was induced in the SKOV3 cells by the addition of 500 ng/ml IFN-γ. Cells were incubated at 37° C. with or without the addition of test compound. After 48 hours, the cells were removed by centrifugation and Erhlich's reagent was added to the supernatant. The Erhlich's reagent was incubated for 5 minutes before the absorbance was read at 490 nm.

TDO = TDO (Homo sapiens, UniProt P48775); assay: A172 Kynurenine cell based assay; parameters: This assay utilised cancer cells which expressed either TDO or IDO; endogenous in cells; host or cells: A172 (human glioblastoma); conditions: A172 (human glioblastoma) cells, 500 μM L-tryptophan, 48 hours, kynurenine by Erhlich's reagent; for IC50: read-out: A172 Kynurenine cell based assay pIC50 (converted)
Chain of TDO (P48775 whole entry): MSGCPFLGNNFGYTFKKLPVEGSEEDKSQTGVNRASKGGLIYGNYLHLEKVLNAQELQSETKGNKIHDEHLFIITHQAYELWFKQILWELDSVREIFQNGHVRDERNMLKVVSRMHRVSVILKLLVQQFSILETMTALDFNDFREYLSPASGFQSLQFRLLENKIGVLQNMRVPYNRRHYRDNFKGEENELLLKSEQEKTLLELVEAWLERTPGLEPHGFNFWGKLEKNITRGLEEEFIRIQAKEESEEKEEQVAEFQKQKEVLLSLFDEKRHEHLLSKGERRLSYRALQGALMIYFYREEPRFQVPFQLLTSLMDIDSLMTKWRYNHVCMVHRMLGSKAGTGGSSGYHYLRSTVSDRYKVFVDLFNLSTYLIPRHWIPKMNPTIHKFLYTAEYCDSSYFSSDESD
Protocol: as §1, §2, §3

Structure (SMILES) | SKOV3 Kynurenine cell based assay pIC50 (IDO) | A172 Kynurenine cell based assay pIC50 (TDO) | IC50 (IDO) [µM] | IC50 (TDO) [µM]
CC(C)CS(=O)(=O)N(c1cccc2cnccc12)S(=O)(=O)CC(C)C [Compound 5] | + (+ = pIC50 4.00-4.49) | +/− (+/− = pIC50 <4.00) |  | 
O=C(Nc1cccc2cnccc12)c1ccccc1 [Compound 7] | + (+ = pIC50 4.00-4.49) | +/− (+/− = pIC50 <4.00) |  | 
CN1CCOC(C(=O)Nc2cccc3cnccc23)C1 (stereo not drawn) [Compound 8] | ++ (++ = pIC50 4.50-5.49) | ++ (++ = pIC50 4.50-5.49) |  | 
Cc1ccc(S(=O)(=O)Nc2cccc3cnccc23)cc1 [Compound 10] | ++ (++ = pIC50 4.50-5.49) | +/− (+/− = pIC50 <4.00) |  | 
O=S(=O)(Nc1cccc2cnccc12)c1ccccc1Cl [Compound 11] | ++ (++ = pIC50 4.50-5.49) | ++ (++ = pIC50 4.50-5.49) |  | 
O=S(=O)(Nc1cccc2cnccc12)c1ccc(Cl)cc1 [Compound 12] | ++ (++ = pIC50 4.50-5.49) | ++ (++ = pIC50 4.50-5.49) |  | 
O=S(=O)(Nc1cccc2cnccc12)c1cccc(Cl)c1 [Compound 13] | ++ (++ = pIC50 4.50-5.49) | ++ (++ = pIC50 4.50-5.49) |  | 
CCCS(=O)(=O)Nc1cccc2cnccc12 [Compound 15] | +/− (+/− = pIC50 <4.00) | ++ (++ = pIC50 4.50-5.49) |  | 
Cc1cccc(S(=O)(=O)Nc2cccc3cnccc23)c1 [Compound 17] | ++ (++ = pIC50 4.50-5.49) | +++ (+++ = pIC50 ≥5.50) |  | 
COc1ccc(S(=O)(=O)Nc2cccc3cnccc23)cc1OC [Compound 18] | + (+ = pIC50 4.00-4.49) | +/− (+/− = pIC50 <4.00) |  | 
O=S(=O)(Nc1cccc2cnccc12)c1ccc2c(c1)OCCO2 [Compound 19] | +++ (+++ = pIC50 ≥5.50) | +++ (+++ = pIC50 ≥5.50) |  | 
O=S(=O)(Nc1cccc2cnccc12)c1ccc(-c2ccccc2)cc1 [Compound 20] | +++ (+++ = pIC50 ≥5.50) | +++ (+++ = pIC50 ≥5.50) |  | 
O=S(=O)(Nc1cccc2cnccc12)c1ccccc1F [Compound 21] | ++ (++ = pIC50 4.50-5.49) | ++ (++ = pIC50 4.50-5.49) |  | 
O=S(=O)(Nc1cccc2cnccc12)c1ccc(F)cc1 [Compound 22] | + (+ = pIC50 4.00-4.49) | +++ (+++ = pIC50 ≥5.50) |  | 
O=S(=O)(Nc1cccc2cnccc12)c1ccc(F)cc1F [Compound 23] | + (+ = pIC50 4.00-4.49) | +/− (+/− = pIC50 <4.00) |  | 
CC(=O)Nc1ccc(S(=O)(=O)Nc2cccc3cnccc23)cc1 [Compound 24] | ++ (++ = pIC50 4.50-5.49) | +/− (+/− = pIC50 <4.00) |  | 
O=S(=O)(Nc1cccc2cnccc12)c1cccc(OC(F)F)c1 [Compound 26] | ++ (++ = pIC50 4.50-5.49) | +++ (+++ = pIC50 ≥5.50) |  | 
Cc1ccccc1S(=O)(=O)Nc1cccc2cnccc12 [Compound 27] | ++ (++ = pIC50 4.50-5.49) | +++ (+++ = pIC50 ≥5.50) |  | 
CN1CCOc2cc(S(=O)(=O)Nc3cccc4cnccc34)ccc21 [Compound 28] |  |  | 3.24 to 31.6 | ≤ 3.16
O=S(=O)(Nc1cccc2cnccc12)c1ccc(Cl)s1 [Compound 29] | ++ (++ = pIC50 4.50-5.49) | ++ (++ = pIC50 4.50-5.49) |  | 

Structure (SMILES) | SKOV3 Kynurenine cell based assay pIC50 (IDO) | A172 Kynurenine cell based assay pIC50 (TDO) | IC50 (IDO) [µM] | IC50 (TDO) [µM]
O=S(=O)(Nc1cccc2cnccc12)c1cccc2cccnc12 [Compound 30] | + (+ = pIC50 4.00-4.49) | +/− (+/− = pIC50 <4.00) |  | 
CC(C)Oc1ccc(S(=O)(=O)Nc2cccc3cnccc23)cc1 [Compound 31] | +++ (+++ = pIC50 ≥5.50) | +/− (+/− = pIC50 <4.00) |  | 
O=C(Nc1ccc2cnccc2c1)c1ccccc1 [Compound 32] | + (+ = pIC50 4.00-4.49) | +/− (+/− = pIC50 <4.00) |  | 
O=C(Nc1cncc2ccccc12)c1ccccc1 [Compound 33] | + (+ = pIC50 4.00-4.49) | +/− (+/− = pIC50 <4.00) |  | 
CS(=O)(=O)c1ccc(S(=O)(=O)Nc2cccc3cnccc23)cc1 [Compound 34] | + (+ = pIC50 4.00-4.49) | +/− (+/− = pIC50 <4.00) |  | 
COc1ccc(S(=O)(=O)Nc2cccc3cnccc23)cc1 [Compound 35] | ++ (++ = pIC50 4.50-5.49) | +++ (+++ = pIC50 ≥5.50) |  | 
N#Cc1ccccc1S(=O)(=O)Nc1cccc2cnccc12 [Compound 36] | + (+ = pIC50 4.00-4.49) | +/− (+/− = pIC50 <4.00) |  | 
CC(C)S(=O)(=O)Nc1cccc2cnccc12 [Compound 37] | +/− (+/− = pIC50 <4.00) | + (+ = pIC50 4.00-4.49) |  | 
O=S(=O)(Nc1cncc2ccccc12)c1ccccc1 [Compound 38] | + (+ = pIC50 4.00-4.49) | + (+ = pIC50 4.00-4.49) |  | 
O=S(=O)(Nc1ccc2cnccc2c1)c1ccccc1 [Compound 39] | + (+ = pIC50 4.00-4.49) | +/− (+/− = pIC50 <4.00) |  | 
Nc1nccc2c(NS(=O)(=O)c3ccccc3)cccc12 [Compound 40] | + (+ = pIC50 4.00-4.49) | + (+ = pIC50 4.00-4.49) |  | 
CC(=O)Nc1cc2c(NS(=O)(=O)c3ccccc3)cccc2cn1 [Compound 41] | + (+ = pIC50 4.00-4.49) | +/− (+/− = pIC50 <4.00) |  | 
CN(c1ccccc1)S(=O)(=O)c1cccc2cnccc12 [Compound 42] | + (+ = pIC50 4.00-4.49) | + (+ = pIC50 4.00-4.49) |  | 
O=C(Nc1ccccc1)c1cccc2cnccc12 [Compound 43] | + (+ = pIC50 4.00-4.49) | +/− (+/− = pIC50 <4.00) |  | 
O=S(=O)(Nc1ccccc1)c1cccc2cnccc12 [Compound 44] | ++ (++ = pIC50 4.50-5.49) | + (+ = pIC50 4.00-4.49) |  | 
CS(=O)(=O)N1CCN(c2cccc3cnccc23)CC1 [Compound 45, 5-(4-(methylsulfonyl)piperazin-1-yl)isoquinoline] |  |  | 32.4 to 100 | > 100
O=S(=O)(Nc1ccc(Cl)cc1)c1cccc2cnccc12 [Compound 46] | ++ (++ = pIC50 4.50-5.49) | + (+ = pIC50 4.00-4.49) |  | 
O=S(=O)(Nc1ccc(-c2ccccc2)cc1)c1cccc2cnccc12 [Compound 47] | ++ (++ = pIC50 4.50-5.49) | ++ (++ = pIC50 4.50-5.49) |  | 
CC(=O)N1CCN(c2cccc3cnccc23)CC1 [Compound 48] | + (+ = pIC50 4.00-4.49) | +/− (+/− = pIC50 <4.00) |  | 
